# Like-named read-outs stand apart in the source and are kept apart here.
# Legend:
# [1] = target: METTL3/METTL14 (Homo sapiens, UniProt Q86U44); test: METTL3-14 Standard Enzyme Assay (METTL3 biochemical assay)
# Procedure, shortened: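 Tritium transfer from ³H-SAM (100 nM) to biotinylated RNA (100 nM) captured on streptavidin flashplates and counted by scintillation. Enzyme complex (2.5 nM) with compound, 5 min preincubation, 30 min reaction at ambient temperature, HEPES pH 7.5 buffer, stopped by excess unlabeled SAM.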
# [2] = system: MOLM-13 cells; test: MOLM-13 96 Hour Cell Proliferation Assay; type: cell-based; details: Homo sapiens, MOLM-13, 96 h
# Procedure, shortened: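 MOLM-13 cells in RPMI 1640 with 10% FBS were plated overnight at 37 °C, then exposed to compound dilutions at 0.25% DMSO final for 96 h. Viability was read by CellTiter-Glo luminescence, normalised to staurosporine (100% death) and DMSO (0% death) controls, and IC50 was fitted by 4-parameter logistic regression.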
# [3] = target: PRMT5-MEP50 (Homo sapiens, UniProt O14744); test: PRMT5 Assay (PRMT5 biochemical assay)
# Procedure, shortened: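 Radiometric methyltransferase read-out: after 60 min reaction, excess unlabelled SAM (15 μM) stops turnover and biotinylated H4 peptide (100 nM) carrying 3H-methyl from 250 nM 3H-SAM is captured on streptavidin flashplates (2 h, 25° C) for scintillation counting. Enzyme, 2.5 nM PRMT5-MEP50, was preincubated 5 min with compound in pH 8.0 Tris buffer with DTT and Tween.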
# [4] = target: T1, METTL16 (Homo sapiens, UniProt Q86W50); test: METTL16 Assay (METTL16 biochemical assay); details: read-out: METTL16 IC50
# T1 sequence (Q86W50 1-562): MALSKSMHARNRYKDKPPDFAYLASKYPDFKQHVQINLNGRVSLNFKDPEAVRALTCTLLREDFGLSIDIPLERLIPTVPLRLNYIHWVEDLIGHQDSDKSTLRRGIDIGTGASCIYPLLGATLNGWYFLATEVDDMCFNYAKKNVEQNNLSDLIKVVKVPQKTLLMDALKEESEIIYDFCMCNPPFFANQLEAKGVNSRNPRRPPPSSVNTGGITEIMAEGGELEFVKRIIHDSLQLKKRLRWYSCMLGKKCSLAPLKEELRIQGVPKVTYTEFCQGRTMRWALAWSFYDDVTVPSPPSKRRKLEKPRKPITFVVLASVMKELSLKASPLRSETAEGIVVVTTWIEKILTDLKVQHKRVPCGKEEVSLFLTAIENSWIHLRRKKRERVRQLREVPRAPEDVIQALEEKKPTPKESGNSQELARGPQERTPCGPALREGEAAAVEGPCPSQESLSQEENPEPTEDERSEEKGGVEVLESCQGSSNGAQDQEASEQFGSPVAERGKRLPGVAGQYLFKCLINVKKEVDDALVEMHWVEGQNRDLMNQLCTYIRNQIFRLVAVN
# Method: Assays were performed in a 25 μl-volume in 384-well V-bottom polypropylene microplates (Greiner Bio-One, cat. No. 781280) at ambient temperature. Optimized 1× assay buffer was 20 mM HEPES pH 7.5, 50 mM KCl, 1 mM DTT, 0.01% Tween, 0.01% BSG, 0.004 U/μl RNAseOUT (cat. No. 10777019, ThermoFisher Scientific, Waltham, Mass.). For compound screening METTL16 (final concentration, f.c.=100 nM) was added using a Multidrop Combi (ThermoFisher Scientific, Waltham, Mass.) and preincubated for 5 min. Reactions were started by adding 3′ biotinylated RNA ([…]-biotin) (f.c.=50 nM), 3H-SAM (f.c.=200 nM) and non-radiolabeled SAM (f.c.=800 nM) substrates. Reactions proceeded for 20 minutes and were quenched with excess non-radioactive SAM (f.c.=100 μM). The reactions were then transferred to streptavidin-coated flashplates and incubated for 2 hours at 25° C. Following two washing cycles with 0.1% Tween-20, the plates were sealed and read on a TopCount (PerkinElmer, Waltham, Mass.) plate-based scintillation counter. For determination of kinetic parameters, reaction times were optimized so that measurements were taken during the initial velocity phase of the reaction.
# [5] = target: METTL1/WDR4 (Homo sapiens, UniProt Q9UBP6); test: METTL1 Assay (METTL1 biochemical assay)
# Procedure, shortened: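 Radiometric methyltransfer by METTL1/WDR4 (6.25 nM f.c., 5 min preincubation) at ambient temperature in HEPES pH 7.5, KCl, MgCl2, DTT; started with 25 nM 3′-biotinylated RNA and 60 nM 3H-SAM, run 20 min, quenched with 15 μM cold SAM. Product captured on streptavidin flashplates (2 h, 25° C), counted by scintillation.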
# [6] = METTL3 biochemical assay; read-out: METTL3 IC50
# [7] = PRMT5 biochemical assay; read-out: PRMT5 IC50
# [8] = read-out: METTL1 IC50, METTL1 biochemical assay
# [9] = METTL1 biochemical assay, read-out: METTL1 IC50
# [10] = read-out: METTL3 IC50; METTL3 biochemical assay
# [11] = read-out: PRMT5 IC50; PRMT5 biochemical assay
# Chain of METTL1/WDR4 (Q9UBP6 whole entry, species assumed): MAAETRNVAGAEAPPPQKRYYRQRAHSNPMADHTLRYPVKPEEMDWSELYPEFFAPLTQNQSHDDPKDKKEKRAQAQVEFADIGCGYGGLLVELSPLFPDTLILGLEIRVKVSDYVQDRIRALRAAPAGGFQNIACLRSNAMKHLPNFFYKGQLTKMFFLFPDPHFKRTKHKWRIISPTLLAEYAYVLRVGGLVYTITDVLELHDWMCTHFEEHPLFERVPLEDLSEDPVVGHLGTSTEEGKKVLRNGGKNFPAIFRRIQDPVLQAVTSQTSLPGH
# Chain of METTL1/WDR4 (P57081 whole entry partner, species assumed): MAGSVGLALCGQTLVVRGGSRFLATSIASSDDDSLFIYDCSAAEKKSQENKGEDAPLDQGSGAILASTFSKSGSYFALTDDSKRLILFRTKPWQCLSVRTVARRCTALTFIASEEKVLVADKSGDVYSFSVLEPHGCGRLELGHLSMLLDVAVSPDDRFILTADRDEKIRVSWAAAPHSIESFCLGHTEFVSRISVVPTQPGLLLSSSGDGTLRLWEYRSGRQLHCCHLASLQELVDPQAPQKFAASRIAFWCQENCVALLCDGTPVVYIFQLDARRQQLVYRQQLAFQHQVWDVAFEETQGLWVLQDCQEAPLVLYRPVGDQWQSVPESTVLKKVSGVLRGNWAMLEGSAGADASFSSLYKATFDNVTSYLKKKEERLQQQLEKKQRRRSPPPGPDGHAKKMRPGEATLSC
# Chain of METTL3/METTL14 (Q86U44 whole entry, species assumed): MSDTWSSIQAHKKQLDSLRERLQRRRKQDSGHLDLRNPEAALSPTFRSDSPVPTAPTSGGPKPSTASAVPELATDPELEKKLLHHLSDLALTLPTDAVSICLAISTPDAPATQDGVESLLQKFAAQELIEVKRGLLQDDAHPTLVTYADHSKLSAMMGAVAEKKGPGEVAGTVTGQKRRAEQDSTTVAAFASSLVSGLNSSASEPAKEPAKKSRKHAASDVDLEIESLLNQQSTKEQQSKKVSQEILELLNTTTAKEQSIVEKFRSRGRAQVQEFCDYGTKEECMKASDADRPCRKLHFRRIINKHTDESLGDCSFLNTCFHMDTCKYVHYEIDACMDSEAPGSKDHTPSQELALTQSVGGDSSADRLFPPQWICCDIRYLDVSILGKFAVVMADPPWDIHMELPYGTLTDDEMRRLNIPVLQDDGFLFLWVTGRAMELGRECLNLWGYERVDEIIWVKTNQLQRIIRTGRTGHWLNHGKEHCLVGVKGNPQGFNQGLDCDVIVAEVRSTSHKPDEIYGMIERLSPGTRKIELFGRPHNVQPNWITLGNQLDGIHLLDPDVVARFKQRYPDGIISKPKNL
# Chain of METTL3/METTL14 (Q9HCE5 whole entry partner, species assumed): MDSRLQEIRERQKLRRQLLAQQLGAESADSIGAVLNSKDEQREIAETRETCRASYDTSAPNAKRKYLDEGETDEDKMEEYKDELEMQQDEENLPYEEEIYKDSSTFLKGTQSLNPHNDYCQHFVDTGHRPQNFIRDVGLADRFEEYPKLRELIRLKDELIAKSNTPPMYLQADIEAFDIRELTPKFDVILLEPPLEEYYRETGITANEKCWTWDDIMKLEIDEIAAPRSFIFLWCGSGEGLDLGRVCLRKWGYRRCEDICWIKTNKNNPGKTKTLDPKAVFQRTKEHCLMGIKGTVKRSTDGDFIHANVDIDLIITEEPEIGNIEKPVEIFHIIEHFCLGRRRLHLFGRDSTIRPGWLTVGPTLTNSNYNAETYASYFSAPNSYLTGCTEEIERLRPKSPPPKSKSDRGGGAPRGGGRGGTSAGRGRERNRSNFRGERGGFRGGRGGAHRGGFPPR
# Chain of PRMT5-MEP50 (O14744 whole entry): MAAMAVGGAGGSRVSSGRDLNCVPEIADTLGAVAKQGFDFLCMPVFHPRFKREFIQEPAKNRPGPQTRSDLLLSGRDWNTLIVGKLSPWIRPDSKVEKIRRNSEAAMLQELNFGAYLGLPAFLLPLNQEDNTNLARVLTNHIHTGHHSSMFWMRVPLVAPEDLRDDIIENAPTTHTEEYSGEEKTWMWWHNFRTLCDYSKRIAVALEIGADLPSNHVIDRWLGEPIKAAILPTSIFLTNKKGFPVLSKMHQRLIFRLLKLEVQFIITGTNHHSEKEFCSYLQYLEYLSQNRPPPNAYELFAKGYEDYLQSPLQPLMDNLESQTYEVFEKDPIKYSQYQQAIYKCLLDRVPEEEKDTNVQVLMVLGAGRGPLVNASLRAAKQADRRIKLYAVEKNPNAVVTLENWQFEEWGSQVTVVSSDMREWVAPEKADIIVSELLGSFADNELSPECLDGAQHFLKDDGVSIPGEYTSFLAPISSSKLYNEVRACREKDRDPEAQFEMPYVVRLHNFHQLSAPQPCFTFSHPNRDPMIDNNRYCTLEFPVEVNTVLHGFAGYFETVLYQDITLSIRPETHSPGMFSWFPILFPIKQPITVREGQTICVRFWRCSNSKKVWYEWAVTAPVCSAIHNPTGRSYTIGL
# Chain of PRMT5-MEP50 (Q9BQA1 whole entry partner): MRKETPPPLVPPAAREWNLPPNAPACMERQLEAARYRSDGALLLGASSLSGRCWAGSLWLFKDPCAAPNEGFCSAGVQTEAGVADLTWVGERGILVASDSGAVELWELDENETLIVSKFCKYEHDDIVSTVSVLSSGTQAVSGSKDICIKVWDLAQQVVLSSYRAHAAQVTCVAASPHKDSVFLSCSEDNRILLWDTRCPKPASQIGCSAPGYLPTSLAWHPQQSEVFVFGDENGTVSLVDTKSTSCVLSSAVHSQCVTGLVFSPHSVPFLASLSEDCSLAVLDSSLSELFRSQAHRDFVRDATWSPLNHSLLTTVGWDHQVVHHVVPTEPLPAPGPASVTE
compound,measurement,setting,value
Cc1cc(N)c2ccc(OC[C@H]3O[C@@H](n4cc(Br)c5c(N)ncnc54)C[C@@H]3O)cc2n1 [I-19],IC50,[1]; [6],100 to 1000 nM
same,IC50,[2],> 10000 nM
same,IC50,[3]; [7],100 to 1000 nM
same,IC50,[4],> 1000 nM
same,IC50,[5]; [8],> 1000 nM
CNc1ccc2ccc(OC[C@H]3O[C@@H](n4cc(C5=CCNC5)c5c(N)ncnc54)[C@@H](F)[C@@H]3O)cc2n1 [I-32],IC50,[1]; [6],10 to 100 nM
same,IC50,[3]; [7],100 to 1000 nM
same,IC50,[4],> 1000 nM
same,IC50,[5]; [8],> 1000 nM
CCNc1ccc2ccc(OC[C@H]3O[C@@H](n4ccc5c(N)ncnc54)[C@H](O)[C@@H]3O)cc2n1 [I-67],IC50,[1]; [6],< 10 nM
same,IC50,[3]; [7],< 10 nM
same,IC50,[4],> 1000 nM
same,IC50,[5]; [8],> 1000 nM
CNc1ccc2ccc(OC[C@H]3C[C@@H](n4cc(C5CCCC5)c5c(N)ncnc54)C[C@@H]3O)cc2n1 [I-50],IC50,[1]; [6],10 to 100 nM
same,IC50,[3]; [7],100 to 1000 nM
same,IC50,[4],> 1000 nM
same,IC50,[5]; [8],> 1000 nM
CNc1ccc2ccc(OC[C@H]3O[C@@H](n4cc(Br)c5c(N)nc(N)nc54)[C@@H](F)[C@@H]3O)cc2n1 [I-25],IC50,[1]; [6],100 to 1000 nM
same,IC50,[3]; [7],10 to 100 nM
same,IC50,[4],> 1000 nM
same,IC50,[5]; [8],> 1000 nM
CNc1ccc2ccc(OC[C@H]3O[C@@H](n4ccc5c(N)nc(C(=O)OC)nc54)[C@@H](F)[C@@H]3O)cc2n1 [I-223],IC50,[1]; [6],> 1000 nM
same,IC50,[3]; [7],> 1000 nM
same,IC50,[4],> 1000 nM
same,IC50,[5],> 1000 nM
CNc1ccc2ccc(OC[C@H]3O[C@@H](n4cc(C5=CCN(C)CC5)c5c(N)ncnc54)[C@@H](F)[C@@H]3O)cc2n1 [I-35],IC50,[1]; [6],10 to 100 nM
same,IC50,[3]; [7],100 to 1000 nM
same,IC50,[4],> 1000 nM
same,IC50,[5]; [8],> 1000 nM
Nc1ncnc2c1ccn2[C@@H]1C[C@H](COc2ccc3ccc(N4CCCC4)nc3c2)[C@@H](O)[C@H]1O [I-82],IC50,[1]; [6],100 to 1000 nM
same,IC50,[3]; [7],100 to 1000 nM
same,IC50,[4],> 1000 nM
same,IC50,[5]; [8],> 1000 nM
Nc1ncnc2c1ccn2[C@@H]1C[C@H](CCc2ccc3ccc(N4CCCC4)nc3c2)[C@@H](O)[C@H]1O [I-83],IC50,[1]; [6],100 to 1000 nM
same,IC50,[3]; [7],10 to 100 nM
same,IC50,[4],> 1000 nM
same,IC50,[5]; [8],> 1000 nM
CNc1ccc2cc(OC[C@H]3O[C@@H](n4cc(Br)c5c(N)ncnc54)[C@H](O)[C@@H]3O)ccc2n1 [I-69],IC50,[1]; [6],10 to 100 nM
same,IC50,[3]; [7],10 to 100 nM
same,IC50,[4],> 1000 nM
same,IC50,[5]; [9],> 1000 nM
Nc1ccc2ccc(OC[C@H]3O[C@@H](n4cc(Br)c5c(N)ncnc54)[C@H](O)[C@@H]3O)cc2n1 [I-71],IC50,[1]; [6],10 to 100 nM
same,IC50,[3]; [7],< 10 nM
same,IC50,[4],> 1000 nM
same,IC50,[5]; [8],> 1000 nM
CNc1ccc2ccc(OC[C@H]3O[C@@H](n4cc(C)c5c(N)ncnc54)[C@@H](F)[C@@H]3O)cc2n1 [I-44],IC50,[1]; [6],10 to 100 nM
same,IC50,[3]; [7],10 to 100 nM
same,IC50,[4],> 1000 nM
same,IC50,[5]; [8],> 1000 nM
Nc1ncnc2c1ccn2[C@@H]1O[C@H](CCc2ccc3ccc(N4CCCC4)nc3c2)[C@@H](O)[C@H]1O [I-68],IC50,[1]; [6],10 to 100 nM
same,IC50,[2],1000 to 10000 nM
same,IC50,[3]; [7],100 to 1000 nM
same,IC50,[4],> 1000 nM
same,IC50,[5]; [8],> 1000 nM
CNc1ccc2ccc(OC[C@H]3O[C@@H](n4cc(C5CCN(C)CC5)c5c(N)ncnc54)[C@@H](F)[C@@H]3O)cc2n1 [I-24],IC50,[1]; [6],10 to 100 nM
same,IC50,[3]; [7],100 to 1000 nM
same,IC50,[4],> 1000 nM
same,IC50,[5]; [8],> 1000 nM
CNc1ccc2ccc(OC[C@H]3O[C@@H](n4cc(C(F)(F)F)c5c(N)ncnc54)[C@@H](F)[C@@H]3O)cc2n1 [I-38],IC50,[1]; [6],10 to 100 nM
same,IC50,[3]; [7],100 to 1000 nM
same,IC50,[4],> 1000 nM
same,IC50,[5]; [8],> 1000 nM
CN(C)Cc1cccc(OC[C@H]2O[C@@H](n3cc(Br)c4c(N)ncnc43)[C@@H](F)[C@@H]2O)c1 [I-31],IC50,[1]; [6],> 1000 nM
same,IC50,[3]; [7],100 to 1000 nM
same,IC50,[4],> 1000 nM
same,IC50,[5]; [8],> 1000 nM
Nc1ccnc2cc(OC[C@H]3O[C@@H](n4cc(Br)c5c(N)ncnc54)[C@@H](F)[C@@H]3O)ccc12 [I-13],IC50,[1]; [6],100 to 1000 nM
same,IC50,[2],> 10000 nM
same,IC50,[3]; [7],10 to 100 nM
same,IC50,[4],> 1000 nM
CNc1ccc2ccc(OC[C@@H]3C[C@@H](O)[C@H](n4cc(C5CCCC5)c5c(N)ncnc54)O3)cc2n1 [I-141],IC50,[1]; [6],100 to 1000 nM
same,IC50,[3]; [7],100 to 1000 nM
same,IC50,[4],> 1000 nM
same,IC50,[5]; [8],> 1000 nM
CNc1ccc2cnc(OC[C@H]3O[C@@H](n4cc(Br)c5c(N)ncnc54)[C@H](O)[C@@H]3O)nc2n1 [I-74],IC50,[1]; [6],> 1000 nM
same,IC50,[2],> 10000 nM
same,IC50,[3]; [7],100 to 1000 nM
same,IC50,[4],> 1000 nM
same,IC50,[5]; [8],> 1000 nM
CNc1ccc2ccc(OC[C@H]3O[C@@H](n4cc(-c5ccnn5C)c5c(N)ncnc54)[C@@H](F)[C@@H]3O)cc2n1 [I-37],IC50,[1]; [10],10 to 100 nM
same,IC50,[3]; [11],100 to 1000 nM
same,IC50,[4],> 1000 nM
same,IC50,[5]; [9],> 1000 nM
CNc1ccc2ccc(OC[C@H]3O[C@@H](n4cc(-c5cc(F)cc(F)c5)c5c(N)ncnc54)[C@@H](F)[C@@H]3O)cc2n1 [I-43],IC50,[1]; [10],100 to 1000 nM
same,IC50,[3]; [11],100 to 1000 nM
same,IC50,[4],> 1000 nM
same,IC50,[5]; [9],> 1000 nM
CNc1ccc2ccc(OC[C@H]3O[C@@H](n4cc(-c5cccnc5)c5c(N)ncnc54)[C@@H](F)[C@@H]3O)cc2n1 [I-40],IC50,[1]; [10],10 to 100 nM
same,IC50,[3]; [11],100 to 1000 nM
same,IC50,[4],> 1000 nM
same,IC50,[5]; [9],> 1000 nM
Cn1ccnc1-c1ccc2ccc(OC[C@H]3O[C@@H](n4cc(Br)c5c(N)ncnc54)[C@@H](F)[C@@H]3O)cc2n1 [I-26],IC50,[1]; [6],> 1000 nM
same,IC50,[3]; [7],100 to 1000 nM
same,IC50,[4],> 1000 nM
same,IC50,[5]; [8],> 1000 nM

# Source: patent publication US20230027361A1, “METTL3 MODULATORS” (priority 2019, published 2023)
